Read-outs that look alike come from different tables or passages of the source.
Columns and labels:
[1] = Dose having a contraceptive effect (literature); format: in vivo; conditions: NEUMANN; reference progestative norgestrel (=1)
Excerpt: (§1) 2) Apart from the above, it would be reasonable to think that the doses claimed should be based on data from clinical pharmacology and/or clinical data previously published and commonly accepted. Now, if the doses defined as in the PLUNKETT patents are considered, it is easy to see that in most cases the active doses published already a long time ago, i.e. before the said patents were filed (NEUMANN, 1977) or more recently (KUHL, 1996), are very coherent but only rarely lie within the dose ranges claimed in the patents in the name of PLUNKETT (Table 2).

[2] = NEUMANN publication; cited from earlier work
ovulation [3] = conditions: cited from earlier work
endometrium [4] = conditions: cited from earlier work
ovulation [5] = test: Dose inhibiting ovulation (literature); format: in vivo; conditions: NEUMANN; reference progestative norgestrel (=1)
Excerpt: as §1

endometrial cells = test: Sequential estrogen-progestative therapy: histological appearance of endometrium biopsy; format: in vivo, women; conditions: for Number of mitoses (% of section in which mitoses were present), Glands: with 30 μg ethinyl estradiol, biopsy Day 17-20 of second cycle
Method: (§2) Menopausal women, whether naturally or as the result of surgery, were subjected to a sequential estrogen-progestative therapy. From Day 1 to Day 12 they received 30 μg of ethinyl estradiol and then, from Day 13 to Day 22, the same dose of ethinyl estradiol associated with different doses of nomegestrol acetate or chlormadinone acetate. The doses were as follows:
(§3) The number of women was between 2 and 11, depending on the group. There was then a therapeutic pause of 7 days followed by a second treatment cycle.
(§4) The parameters taken into account were as follows: • the interval before periods commenced after the therapy had been interrupted, following the first and second treatment cycles; • the histological appearance of the endometrium recovered in a biopsy carried out between Day 17 and Day 20 of the second cycle.

menopausal women = test: Sequential estrogen-progestative therapy: interval before periods after therapy is interrupted; format: in vivo; conditions: Day 13-22, with 30 μg ethinyl estradiol
Method: as §2, §3, §4

endometrium [6] = test: Dose inducing transformation of the endometrium (literature); format: in vivo; conditions: NEUMANN; reference progestative norgestrel (=1)
Excerpt: as §1

[7] = NEUMANN publication; cited from earlier work; remark: listed apart in the source

SMILES | Dose ratio, Contraception (4) [1] | Dose necessary to have a contraceptive effect (4) [2] | Dose necessary to inhibit ovulation (3) (ovulation [3]; NEUMANN publication) | Dose necessary to induce transformation of the endometrium (1) (endometrium [4]; NEUMANN publication) | Dose ratio, Endometrium (1) (endometrium [6]) | Dose necessary to produce an adequate delay in the onset of periods (2), Menstruation [7] | other results
CC(=O)O[C@]1(C(C)=O)CC[C@H]2[C@@H]3C=C(Cl)C4=CC(=O)[C@@H]5C[C@@H]5[C@]4(C)[C@H]3CC[C@@]21C [CIP acetate, Cyproterone acetate] | 8.0 | 2000 µg/day | 1000 µg/day | 1000 µg/day |  |  | Dose necessary to inhibit ovulation (3) (ovulation [3]; KUHL): 1000 µg/day; Dose necessary to induce transformation of the endometrium (1) (endometrium [4]; KUHL): 2000 µg/day; Dose ratio, Ovulation (3) (ovulation [5]): 10.0
CC(=O)O[C@]1(C(C)=O)CC[C@H]2[C@@H]3C=C(Cl)C4=CC(=O)CC[C@]4(C)[C@H]3CC[C@@]21C [Chlormadinone acetate, chlormadinone acetate] |  |  |  |  |  |  | Number of mitoses (% of section in which mitoses were present), Glands (endometrial cells; 0.1 mg/day): 90%; Mitosis in glandular cells (endometrial cells; 1 mg/day, sequential therapy with 30 μg ethinyl estradiol): mitosis is still evident; Number of mitoses (% of section in which mitoses were present), Glands (endometrial cells; 1 mg/day): 50%; Number of mitoses (% of section in which mitoses were present), Glands (endometrial cells; 2 mg/day): 0%; Number of mitoses (% of section in which mitoses were present), Glands (endometrial cells; 5 mg/day): 0%; Number of mitoses (% of section in which mitoses were present), Glands (endometrial cells; 10 mg/day): 0%; Interval before the appearance of periods after the therapy is discontinued (menopausal women; 0.1 mg/day): -2.3 ± 0.5 days; Interval before the appearance of periods after the therapy is discontinued (menopausal women; 0.5 mg/day): 2.0 ± 0.6 days; Interval before the appearance of periods after the therapy is discontinued (menopausal women; 1.0 mg/day): 3.8 ± 0.3 days; Interval before the appearance of periods after the therapy is discontinued (menopausal women; 2.0 mg/day): 3.8 ± 0.3 days; Interval before the appearance of periods after the therapy is discontinued (menopausal women; 5 mg/day): 5.5 ± 1.5 days; Interval before the appearance of periods after the therapy is discontinued (menopausal women; 10 mg/day): 5.5 ± 0.5 days
C#C[C@]1(O)CC[C@H]2[C@@H]3CCC4=CCCC[C@@H]4[C@H]3CC[C@@]21C [Lynoestrenol] | 10.0 | 2500 µg/day |  | 5000 µg/day | 4.2 |  | 
CC(=O)O[C@]1(C(C)=O)CC[C@H]2[C@@H]3C[C@H](C)C4=CC(=O)CC[C@]4(C)[C@H]3CC[C@@]21C [MPA, medroxyprogesterone acetate] | 20.0 | 5000 µg/day |  | 5500 µg/day |  | 25000 µg/day | 
C#C[C@]1(OC(C)=O)CC[C@H]2[C@@H]3CCC4=CC(=O)CC[C@@H]4[C@H]3CC[C@@]21C [Norethisterone acetate] | 4.0 | 1000 µg/day | 800 µg/day | 4500 µg/day | 3.8 |  | 
C#C[C@]1(O)CC[C@H]2[C@@H]3CCC4=CC(=O)CC[C@@H]4[C@H]3CC[C@@]21C [Norethisterone] | 4.0 | 1000 µg/day | 800 µg/day | 12500 µg/day |  | 5000 µg/day | Dose necessary to inhibit ovulation (3) (ovulation [3]; KUHL): 400 µg/day; Dose necessary to induce transformation of the endometrium (1) (endometrium [4]; KUHL): 10000 µg/day
C#C[C@]1(O)CC[C@H]2[C@@H]3CCC4=C(CCC(=O)C4)[C@H]3CC[C@@]21C [Norethynodrel] | 10.0 | 2500 µg/day | 6000 µg/day | 10000 µg/day | 8.3 | 7500 µg/day | 

Source: patent publication US8168619B1, “Hormonal composition based on a progestational agent and an oestrogen and use thereof” (Laboratoire Theramex, priority 1999, dated 2012)
